Test results published in PMC3446843 (Toxicological Sciences, 2012).

Assays:
[1] = system: isolated mouse liver mitochondria; assay: Loss of mitochondrial transmembrane potential; format: biochemical; details: for ΔΨm loss EC20: 20% of maximal loss of ΔΨm (50µM mClCCP = 100%), 30-min incubation
[2] = system: isolated mouse liver mitochondria, complex I; assay: Oxygen consumption through complex I; details: for O2 cons CI EC20: inhibition of oxygen consumption, malate + glutamate + ADP, 2µM rotenone = 100%

SMILES | ΔΨm loss EC20 [1] [µM] | other results
CC(=O)Nc1ccc(O)cc1 [Acetaminophen] | > 200 | O2 cons CI EC20 [2]: > 400 µM
CC(=O)Oc1ccccc1C(=O)O [Acetylsalicylic acid] | 335.5 | O2 cons CI EC20 [2]: 149.8 µM
CCCN(CCC)C(=O)Cc1c(-c2ccc(Cl)cc2)nc2ccc(Cl)cn12 [Alpidem] | 83.7 | O2 cons CI EC20 [2]: 29.6 µM
NC12CC3CC(CC(C3)C1)C2 [Amantadine] | 261.2 | O2 cons CI EC20 [2]: > 400 µM
Nc1c(Br)cc(Br)cc1CN[C@H]1CC[C@H](O)CC1 [Ambroxol] | > 200 | O2 cons CI EC20 [2]: > 200 µM
CCCCc1oc2ccccc2c1C(=O)c1cc(I)c(OCCN(CC)CC)c(I)c1 [Amiodarone] | 2.6 | 
CC1(C)S[C@@H]2[C@H](NC(=O)[C@H](N)c3ccc(O)cc3)C(=O)N2[C@H]1C(=O)O [Amoxicillin] | > 400 | 
CC1(C)S[C@@H]2[C@H](NC(=O)[C@H](N)c3ccccc3)C(=O)N2[C@H]1C(=O)O [Ampicillin] | > 400 | 
Cc1cc(=O)n(-c2ccccc2)n1C [Antipyrine] | 300.0 | O2 cons CI EC20 [2]: > 400 µM
CC(C)c1c(C(=O)Nc2ccccc2)c(-c2ccccc2)c(-c2ccc(F)cc2)n1CC[C@@H](O)C[C@@H](O)CC(=O)O [Atorvastatin] | 4.3 | 
O=C(O)CCCC[C@@H]1SC[C@@H]2NC(=O)N[C@@H]21 [Biotin] | > 400 | O2 cons CI EC20 [2]: > 400 µM
CC(=O)Oc1ccc(C(c2ccc(OC(C)=O)cc2)c2ccccn2)cc1 [Bisacodyl] | 312.4 | O2 cons CI EC20 [2]: 52.5 µM
CCCCN1CCCCC1C(=O)Nc1c(C)cccc1C (centres unmarked) [Bupivacaine] | 258.2 | O2 cons CI EC20 [2]: > 800 µM
CS(=O)(=O)OCCCCOS(C)(=O)=O [Busulfan] | 483.1 | 
O=C(/C=C/c1ccc(O)c(O)c1)c1ccc(O)cc1O [Butein] | > 200 | 
Cn1c(=O)c2c(ncn2C)n(C)c1=O [Caffeine] | > 400 | O2 cons CI EC20 [2]: > 400 µM
COc1cc(CNC(=O)CCCC/C=C/C(C)C)ccc1O [Capsaicin] | 275.0 | O2 cons CI EC20 [2]: 15.7 µM
NC(=O)N1c2ccccc2C=Cc2ccccc21 [Carbamazepine] | 66.9 | effect on oxygen consumption (in words) ([2]; with malate/glutamate and/or succinate): increased oxygen consumption
C=CC1=C(C(=O)O)N2C(=O)[C@@H](NC(=O)/C(=N\OCC(=O)O)c3csc(N)n3)[C@H]2SC1 [Cefixime] | > 400 | O2 cons CI EC20 [2]: 216.8 µM
O=C(O)CCCc1ccc(N(CCCl)CCCl)cc1 [Chlorambucil] | > 200 | O2 cons CI EC20 [2]: 140.9 µM
O=C(O)c1cn(C2CC2)c2cc(N3CCNCC3)c(F)cc2c1=O [Ciprofloxacin] | > 400 | 
Clc1ccccc1C(c1ccccc1)(c1ccccc1)n1ccnc1 [Clotrimazole] | 23.9 | 
O=c1ccc2ccccc2o1 [Coumarin] | 0.9 | 
Cc1nc(Nc2ncc(C(=O)Nc3c(C)cccc3Cl)s2)cc(N2CCN(CCO)CC2)n1 [Dasatinib] | 20.8 | 

SMILES | ΔΨm loss EC20 [1] [µM] | other results
COc1cccc2c1C(=O)c1c(O)c3c(c(O)c1C2=O)C[C@@](O)(C(C)=O)C[C@@H]3O[C@H]1C[C@H](N)[C@H](O)[C@H](C)O1 [Daunorubicin] |  | O2 cons CI EC20 [2]: 10.9 µM
CC1=NS(=O)(=O)c2cc(Cl)ccc2N1 [Diazoxide] | > 200 | 
O=C(O)c1cc(-c2ccc(F)cc2F)ccc1O [Diflunisal] | 17.9 | 
CCN(CC)C(=S)SSC(=S)N(CC)CC [Disulfiram] | 12.6 | 
COc1cccc2c1C(=O)c1c(O)c3c(c(O)c1C2=O)C[C@@](O)(C(=O)CO)C[C@@H]3O[C@H]1C[C@H](N)[C@H](O)[C@H](C)O1 [Doxorubicin] | 8.9 | 
Clc1ccc(COC(Cn2ccnc2)c2ccc(Cl)cc2Cl)cc1 (centres unmarked) [Econazole] | 13.3 | 
O=C(O)c1ccccc1Nc1cccc(C(F)(F)F)c1 [Flufenamic acid] | 42.5 | 
CC(C)C(=O)Nc1ccc([N+](=O)[O-])c(C(F)(F)F)c1 [Flutamide] | 27.0 | 
COc1cc2ncnc(Nc3ccc(F)c(Cl)c3)c2cc1OCCCN1CCOCC1 [Gefitinib] | 9.6 | 
O=c1c(-c2ccc(O)cc2)coc2cc(O)cc(O)c12 [Genistein] | 150.6 | 
CNC(C)C1CCC(N)C(OC2C(N)CC(N)C(OC3OCC(C)(O)C(NC)C3O)C2O)O1 (centres unmarked) [Gentamicin] | 49.0 | 
CCC1=C(C)CN(C(=O)NCCc2ccc(S(=O)(=O)NC(=O)N[C@H]3CC[C@H](C)CC3)cc2)C1=O [Glimepiride] | 94.6 | 
Cc1cc2c(C(C)C)c(O)c(O)c(C=O)c2c(O)c1-c1c(C)cc2c(C(C)C)c(O)c(O)c(C=O)c2c1O [Gossypol] | 1.0 | 
CC(C)=CCC[C@]1(C)[C@@H](CC=C(C)C)C[C@@]2(CC=C(C)C)C(=O)[C@]1(C(=O)C(C)C)C(=O)C(CC=C(C)C)=C2O [Hyperforin] | 0.1 | 
Cc1ccc(NC(=O)c2ccc(CN3CCN(C)CC3)cc2)cc1Nc1nccc(-c2cccnc2)n1 [Imatinib] | 25.7 | 
CN(C)CCCN1c2ccccc2CCc2ccccc21 [Imipramine] | 74.8 | 
COc1ccc2c(c1)c(CC(=O)O)c(C)n2C(=O)c1ccc(Cl)cc1 [Indomethacin] | 443.2 | 
NNC(=O)c1ccncc1 [Isoniazide] | 504.6 | 
O=C(O)c1nn(Cc2ccc(Cl)cc2Cl)c2ccccc12 [Lonidamine] | 138.1 | 
Cc1cccc(Nc2ccccc2C(=O)O)c1C [Mefenamic acid] | 49.7 | 
Sc1ncnc2nc[nH]c12 [Mercaptopurine] | 406.9 | 
CO[C@@]12[C@H](COC(N)=O)C3=C(C(=O)C(C)=C(N)C3=O)N1C[C@@H]1N[C@@H]12 [Mitomycin C] | > 200 | 
O=C1c2c(O)ccc(O)c2C(=O)c2c(NCCNCCO)ccc(NCCNCCO)c21 [Mitoxantrone] | 7.00 | 
Cc1c(O)cccc1C(=O)N[C@@H](CSc1ccccc1)[C@H](O)CN1C[C@H]2CCCC[C@H]2C[C@H]1C(=O)NC(C)(C)C [Nelfinavir] | 6.3 | concentrations collapsing the ΔΨm and altering the mitochondrial respiration [1]: lower than 50 μM

SMILES | ΔΨm loss EC20 [1] [µM] | other results
CO[C@]12C[C@@H](COC(=O)c3cncc(Br)c3)CN(C)[C@@H]1Cc1cn(C)c3cccc2c13 [Nicergoline] | 82.6 | 
Cc1cn(-c2cc(NC(=O)c3ccc(C)c(Nc4nccc(-c5cccnc5)n4)c3)cc(C(F)(F)F)c2)cn1 [Nilotinib] | 11.5 | 
CS(=O)(=O)Nc1ccc([N+](=O)[O-])cc1Oc1ccccc1 [Nimesulide] | 10.1 | 
CCCCC1C(=O)N(c2ccccc2)N(c2ccccc2)C1=O [Phenylbutazone] | 140.2 | 
CC[C@H](C)C(=O)O[C@H]1C[C@H](O)C=C2C=C[C@H](C)[C@H](CC[C@@H](O)C[C@@H](O)CC(=O)O)[C@H]21 [Pravastatin] | > 200 | 
CCCc1cc(=O)[nH]c(=S)[nH]1 [Propylthiouracil] | 391.5 | 
Oc1ccc(/C=C/c2cc(O)cc(O)c2)cc1 [Resveratrol] | 395.4 | 
Cc1cc2nc3c(=O)[nH]c(=O)nc-3n(C[C@H](O)[C@H](O)[C@H](O)CO)c2cc1C [Riboflavin] |  | O2 cons CI EC20 [2]: 182.8 µM
CO[C@H]1/C=C/O[C@@]2(C)Oc3c(C)c(O)c4c(O)c(c(/C=N/N5CCN(C)CC5)c(O)c4c3C2=O)NC(=O)/C(C)=C\C=C\[C@H](C)[C@H](O)[C@@H](C)[C@@H](O)[C@@H](C)[C@H](OC(C)=O)[C@@H]1C [Rifampicin] | > 800 | 
CC(C)c1nc(CN(C)C(=O)N[C@H](C(=O)N[C@@H](Cc2ccccc2)C[C@H](O)[C@H](Cc2ccccc2)NC(=O)OCc2cncs2)C(C)C)cs1 [Ritonavir] | 24.8 | concentrations collapsing the ΔΨm and altering the mitochondrial respiration [1]: lower than 50 μM
CC[C@H]1OC(=O)[C@H](C)[C@@H](O[C@H]2C[C@@](C)(OC)[C@@H](O)[C@H](C)O2)[C@H](C)[C@@H](O[C@@H]2O[C@H](C)C[C@H](N(C)C)[C@H]2O)[C@](C)(O)C[C@@H](C)/C(=N\OCOCCOC)[C@H](C)[C@@H](O)[C@]1(C)O [Roxithromycin] | 244.8 | 
CNC(=O)c1cc(Oc2ccc(NC(=O)Nc3ccc(Cl)c(C(F)(F)F)c3)cc2)ccn1 [Sorafenib] | 0.5 | 
[H]/N=C(/N)N[C@H]1[C@H](O)[C@@H](O)[C@H](O[C@@H]2O[C@@H](C)[C@](O)(C=O)[C@H]2O[C@@H]2O[C@@H](CO)[C@H](O)[C@@H](O)[C@@H]2NC)[C@@H](N/C(N)=N\[H])[C@@H]1O [Streptomycin] | 78.8 | 
CCN(CC)CCNC(=O)c1c(C)[nH]c(/C=C2\C(=O)Nc3ccc(F)cc32)c1C [Sunitinib] | 23.2 | 
CC/C(=C(\c1ccccc1)c1ccc(OCCN(C)C)cc1)c1ccccc1 [Tamoxifen] | 2.9 | 
CN(C/C=C/C#CC(C)(C)C)Cc1cccc2ccccc12 [Terbinafine] | 12.5 | 
Clc1ccccc1CN1CCc2sccc2C1 [Ticlopidine] | 50.5 | 
Cc1ccc(C(=O)c2cc(O)c(O)c([N+](=O)[O-])c2)cc1 [Tolcapone] | 3.9 | 
Cc1c(Cl)cccc1Nc1ccccc1C(=O)O [Tolfenamic acid] | 7.1 | 
COc1cccc(C2(O)CCCCC2CN(C)C)c1 (centres unmarked) [Tramadol] | 263.8 | 
CC[C@]1(O)C[C@@H]2CN(CCc3c([nH]c4ccccc34)[C@@](C(=O)OC)(c3cc4c(cc3OC)N(C)[C@H]3[C@@](O)(C(=O)OC)[C@H](OC(C)=O)[C@]5(CC)C=CCN6CC[C@]43[C@@H]65)C2)C1 [Vinblastine] | 25.7 | 
CCOC(=O)CN[C@@H](C(=O)N1CC[C@H]1C(=O)NCc1ccc(/C(N)=N\O)cc1)C1CCCCC1 [Ximelagatran] | 535.7 | 
